Columns and labels:
Type in all cases: cell-based, mouse
[1] = test system: α7 integrin (LacZ reporter in α7+/LacZ myotubes); assay: Myotube α7 integrin FDG assay (Burkin assay in myotubes, 96-well); conditions: myotubes
[2] = test system: β-galactosidase in CMV-LacZ C2C12 myotubes; assay: CMV-LacZ secondary screen in C2C12 myotubes (β-Gal stabilizing assay); conditions: for CMV-LACZ in Myotubes (β-galactosidase activity relative to DMSO): CMV-LacZ C2C12 myotubes, 96-well format; for CMV-LACZ in Myotubes, signal relative to DMSO: C2C12 CMV-LacZ myotubes, fold relative to DMSO
How it was run: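 First, C2C12 myoblasts were transfected with a linearized CMV-LACZ vector and clonal lines selected by FDG β-gal assay. Then cells were exposed to compounds at 0.5, 1, 5, 10, 20 and 40 μM in 96-well format, two replicates each, and β-gal measured.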

[3] = test system: α7 integrin (LacZ reporter in α7βgal+/− myoblasts); assay: Myoblast α7+/LacZ integrin FDG assay (Burkin assay in myoblasts, 96-well); conditions: α7+/LacZ myoblasts, 96-well

SMILES | CMV-LACZ in Myotubes (β-galactosidase activity relative to DMSO) ([2]; 5 uM) | CMV-LACZ in Myotubes (β-galactosidase activity relative to DMSO) ([2]; 10 uM) | CMV-LACZ in Myotubes (β-galactosidase activity relative to DMSO) ([2]; 20 uM) | CMV-LACZ in Myotubes (β-galactosidase activity relative to DMSO) ([2]; 40 uM) | Burkin Assay in Myotubes (signal relative to DMSO) ([1]; 0.5 uM) | Burkin Assay in Myotubes (signal relative to DMSO) ([1]; 1 uM) | Burkin Assay in Myotubes (signal relative to DMSO) ([1]; 5 uM) | Burkin Assay in Myotubes (signal relative to DMSO) ([1]; 10 uM) | Burkin Assay in Myotubes (signal relative to DMSO) ([1]; 20 uM) | Burkin Assay in Myotubes (signal relative to DMSO) ([1]; 40 uM) | Burkin Assay in Myoblasts, value relative to DMSO ([3]; 0.5 uM) | Burkin Assay in Myoblasts, value relative to DMSO ([3]; 1 uM) | Burkin Assay in Myoblasts, value relative to DMSO ([3]; 5 uM) | Burkin Assay in Myoblasts, value relative to DMSO ([3]; 10 uM) | Burkin Assay in Myoblasts, value relative to DMSO ([3]; 20 uM) | Burkin Assay in Myoblasts, value relative to DMSO ([3]; 40 uM) | further results
CCOc1ccc(NC(=O)CN2C(=O)NC(CCSC)C2=O)cc1 (stereo not shown) [MLS000772430-01] | 0.8183 | 0.9094 | 0.8956 | 1.037 | – | – | – | – | – | – | – | – | – | – | – | – | fold induction at 0.5 µM ([1]; Mus musculus, Myotube, 0.5 uM, read-out: Burkin Assay in Myotubes (signal relative to DMSO)): 1.03; fold induction at 1 µM ([1]; Mus musculus, Myotube, 1 uM, read-out: Burkin Assay in Myotubes (signal relative to DMSO)): 1.28; fold induction at 5 µM ([1]; Mus musculus, Myotube, 5 uM, read-out: Burkin Assay in Myotubes (signal relative to DMSO)): 1.04; fold induction at 10 µM ([1]; Mus musculus, Myotube, 10 uM, read-out: Burkin Assay in Myotubes (signal relative to DMSO)): 1.25; fold induction at 20 µM ([1]; Mus musculus, Myotube, 20 uM, read-out: Burkin Assay in Myotubes (signal relative to DMSO)): 1.26; fold induction at 40 µM ([1]; Mus musculus, Myotube, 40 uM, read-out: Burkin Assay in Myotubes (signal relative to DMSO)): 1.05; fold induction at 0.5 µM ([3]; Mus musculus, Myoblast, 48 h, 0.5 uM, read-out: Burkin Assay in Myoblasts, value relative to DMSO): 0.973; fold induction at 1 µM ([3]; Mus musculus, Myoblast, 48 h, 1 uM, read-out: Burkin Assay in Myoblasts, value relative to DMSO): 0.936; fold induction at 5 µM ([3]; Mus musculus, Myoblast, 48 h, 5 uM, read-out: Burkin Assay in Myoblasts, value relative to DMSO): 1.01; fold induction at 10 µM ([3]; Mus musculus, Myoblast, 48 h, 10 uM, read-out: Burkin Assay in Myoblasts, value relative to DMSO): 1.05; fold induction at 20 µM ([3]; Mus musculus, Myoblast, 48 h, 20 uM, read-out: Burkin Assay in Myoblasts, value relative to DMSO): 0.881; fold induction at 40 µM ([3]; Mus musculus, Myoblast, 48 h, 40 uM, read-out: Burkin Assay in Myoblasts, value relative to DMSO): 0.896
CCNC(=O)COC(=O)c1cc(-c2ccco2)nc2ccccc12 [MLS000772580-01] | – | – | – | – | 0.851 | 0.8999 | 1.323 | 0.9474 | 0.9413 | 0.8535 | 0.8487 | 0.9736 | 0.8554 | 0.8513 | 0.7938 | 0.7251 | CMV-LACZ in Myotubes, signal relative to DMSO ([2]; 5 uM): 0.8986; CMV-LACZ in Myotubes, signal relative to DMSO ([2]; 10 uM): 1.0933; CMV-LACZ in Myotubes, signal relative to DMSO ([2]; 20 uM): 1.029; CMV-LACZ in Myotubes, signal relative to DMSO ([2]; 40 uM): 1.088
O=C(Nc1ccccc1)Nc1ccc(Cl)c(S(=O)(=O)N2CCOCC2)c1 [MLS000773700-01] | 1.126 | 1.1166 | 0.929 | 0.4092 | 1.008 | 1.019 | 0.7118 | 0.9516 | 0.9895 | 0.472 | 0.9335 | 1.0257 | 0.9059 | 0.8657 | 0.9227 | 0.8721 | –
CN(C)S(=O)(=O)c1ccc(C(=O)Nc2nc3ccccc3[nH]2)cc1 [MLS000774940-01] | 0.954 | 0.8604 | 1.171 | 1.005 | 0.9469 | 0.9777 | 1.01 | 0.9908 | 1.084 | 0.878 | 0.9309 | 0.8928 | 1.095 | 1.043 | 0.858 | 0.7761 | –

Source: patent publication US9980943B2, “Methods of treating muscular dystrophy” (BOARD OF REGENTS OF THE NEVADA SYSTEM OF HIGHER EDUCATION, …, priority 2013, dated 2018)
